Entries after “also recorded” stand apart in the source; their conditions may differ. Where no end group is shown, it is not given here.

The target of data set [1] is T1, trypsin (Bos taurus, UniProt P00760).
T1 sequence (P00760 24-246): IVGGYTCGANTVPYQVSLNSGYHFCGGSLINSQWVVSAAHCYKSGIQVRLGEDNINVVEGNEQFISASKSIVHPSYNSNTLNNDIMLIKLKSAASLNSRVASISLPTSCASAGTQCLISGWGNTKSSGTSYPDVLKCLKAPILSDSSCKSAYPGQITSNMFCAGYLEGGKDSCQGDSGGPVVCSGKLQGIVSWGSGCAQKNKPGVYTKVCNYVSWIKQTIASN
The data set is described as follows: Trypsin digestion of RAD16-I followed by MALDI-TOF. The format is in vitro ADME. More on the design: key to Peak Presence in MALDI Spectra: peak presence (+); absence (−). The note with it: for Peak Presence in MALDI Spectra: fragments expected after trypsin digestion of RAD16-I, peptide 100 µM in water (50 µM elsewhere in the source), trypsin 1000:1 peptide:enzyme molar ratio, 0-30 min, untreated and thermally treated (90 °C, 10 min) samples, duplicate. The protocol: Matrix-assisted laser desorption/ionization time of flight (MALDI-TOF) of trypsin-digested peptide samples was performed on a Bruker Ultraflex mass spectrometer, equipped with a pulsed nitrogen laser (337 nm). The peptide RAD16-I was diluted from a stock solution to a final concentration of 100 µM in water. Trypsin was added in a molar ratio 1000:1 (peptide:enzyme). Peptide samples were incubated with trypsin at 37 °C for 0, 1, 5, 10 and 30 min (performed in duplicate), and boiled in order to inactivate trypsin. Samples were prepared by mixing 0.5 µL of the peptide solution with 1 µL of the matrix solution (0.3 mg/mL, α-cyano-4-hydroxy-cinnamic acid in ethanol/acetone 2:1). The mixture was then spotted on an anchor-chip target (Bruker, Billerica, MA, USA) and allowed to evaporate to dryness at room temperature. Spectra were acquired in positive reflectron mode, using an acceleration voltage of 25 kV. Acquisition was performed in automated mode, using the Autoexecute software (Bruker, Billerica, MA, USA). A total of 1000 spectra, collected in 50-shot series at different positions of the sample spot were averaged for each sample. A mixture of standard peptides of known molecular mass in the range from 750–3500 Da (Bruker) was used for external calibration of the mass spectra.
To evaluate RAD16-I trypsin degradation, we incubated the peptide with trypsin with or without the previous denaturation step (incubation at 90 °C for 10 min). Thus, we incubated the RAD16-I samples with trypsin at 37 °C for different periods of time, and at each timepoint we mixed the reaction product with the α-cyano-4-hydroxy-cinnamic acid matrix and let the sample dry. Finally, samples were analyzed by MALDI. […] Furthermore, small peaks with m/z 1642 and 1558 could be detected, which may correspond to the peptide chain without one amino acid residue, an alanine and an arginine, respectively. These peptides are most likely impurities from the RAD16-I peptide synthesis.
We next aimed to determine if the structural changes observed by CD after denaturing RAD16-I (Figure 2) had any influence on proteolytic degradation. For that, peptide stock solution was diluted to 50 µM and then denatured or not for 10 min at 90 °C. Then, trypsin was added and incubated at 37 °C for different periods of time. The proteolytic reaction was inactivated by boiling the samples, and samples were finally mixed with the matrix and MALDI spectra were acquired. […] Moreover, no differences between untreated and thermally treated samples were detected.
We hypothesized that these unexpected results were due to an inefficient […] of trypsin when MALDI samples were prepared, in which trypsin was inactivated by boiling the samples. […] In this case, the samples were taken and immediately mixed with the MALDI-TOF matrix and evaporated on the sample holder.

Data set [2] deals with trypsin. Put plainly: trypsin in water, molar ratio 1000:1 (peptide:enzyme); untreated (non-denatured) RAD16-I. The settings on record: 37 °C, up to 30 min.
Data set [3] relates to trypsin. The data set is described as follows: trypsin in water, molar ratio 1000:1 (peptide:enzyme); RAD16-I denatured for 10 min at 90 °C before trypsin. The note with it: 37 °C, up to 30 min.
Data set [4] concerns the target T1, trypsin. Put plainly: Trypsin degradation of RAD16-I nanofibers imaged by AFM. The format is in vitro ADME. The settings on record: RAD16-I 100 µM in water, AFM on mica. On the procedure:
(§1) To image the thermal denaturation of the self-assembling peptide, RAD16-I samples were diluted in water from a stock solution (5.38 mM) to a final concentration of 100 µM. The thermal treatment consisted of subjecting the sample to a 90 °C incubation for 10 min. Then, 1 µL of sample was deposited onto freshly cleaved mica (Grade V5 mica, Structure Probe Inc., 01804-CA, West Chester, PA, USA), rinsed twice with Milli-Q water and observed under the AFM. For RAD16-I degradation experiments, samples were prepared as follows: RAD16-I was diluted in water from a stock solution at a final concentration of 100 µM. For thermal treated samples, a 10 min denaturation step (incubation at 90 °C) was performed prior to the enzymatic degradation. Samples were cooled at room temperature and trypsin (Merck, T1426) was added at a 1:1000 molar ratio (enzyme:peptide). Samples (1 µL) were taken at 10 and 60 min and were deposited onto freshly cleaved mica, rinsed twice with Milli-Q water, air dried and scanned under the AFM.
AFM images were obtained with a silicon-scanning probe (AC240-TS, Asylum Research) with a resonance frequency of 70 KHz, spring constant 2 N/m, tip curvature radius <10 nm and 240 μm length. Images were obtained with a Multimode AFM microscope (Nanoscope IIIa, Digital Instruments, Santa Barbara, CA, USA) operating in TappingMode. AFM scans were taken at a resolution of 512 × 512 pixels and produced topographic images of samples, whose brightness of features increased as a function of height. Typical scanning parameters were as follows: tapping frequency 75 kHz, RMS amplitude before engagement 1–1.5 V, setpoint 0.7–1 V, integral and proportional gains from 0.3–0.6 and 0.4–0.6, respectively, and scan rate 1.51 Hz.
Because MALDI spectra results indicated peptide proteolysis upon trypsin treatment (Figure 4), we expected to detect structural changes in the peptide using AFM analysis. RAD16-I samples incubated with trypsin were taken at 10 and 60 min and directly spotted into freshly cleaved mica. Then the mica was rinsed with deionized water, dried and observed under the AFM. […]

A short description of data set [5]: Thermal stability of secondary structure by circular dichroism. The format is physicochemical. The protocol: Circular dichroism studies were performed on a JASCO-810 spectropolarimeter equipped with a Peltier system. RAD16-I samples (commercially available as PuraMatrix^TM, 354250, Corning, Corning, NY, USA) were diluted from a peptide stock solution (1% in water, 5.38 mM) in deionized water to a final concentration of 25, 50 and 75 µM and allowed to equilibrate at 20 or 90 °C for 10 min prior to analysis. CD data were acquired in a range from 195–240 nm at a band width of 1 nm and scan speed of 20 nm/s.
As a self-assembling peptide, RAD16-I is composed of repeating units of hydrophilic and hydrophobic amino acids, in which the charged residues alternate positive and negative charges, forming a β-sheet structure in aqueous solutions (Figure 1). This characteristic sequence is the one responsible for the self-assembly of the peptide molecules into a hydrogel, formed by a network of interweaving nanofibers from 10–20 nm in diameter and 50–200 nm in pore size and, thus, the applicability of the material as a scaffold in biomedical applications. Circular dichroism (CD) studies were performed to characterize the RAD16-I peptide structure. As a peptide with a β-sheet secondary structure, RAD16-I circular dichroism spectrum at room temperature (20 °C) presented a minimum molar ellipticity at 218 nm, which represents the β-sheet content, and a maximum of approximately 195 nm, which corresponds to the backbone twist of the peptide in the β-sheet configuration [38]. […] This spectrum was also maintained when the peptide was incubated at 40 °C.

Data set [6] is described as follows: Thermal denaturation of nanofibers imaged by AFM. The note with it: 100 µM in water, AFM on mica. The format is physicochemical. The protocol: as §1
AFM images were obtained with a silicon-scanning probe (AC240-TS, Asylum Research) with a resonance frequency of 70 KHz, spring constant 2 N/m, tip curvature radius <10 nm and 240 μm length. Images were obtained with a Multimode AFM microscope (Nanoscope IIIa, Digital Instruments, Santa Barbara, CA, USA) operating in TappingMode. […]

As for “ADAR [theoretical trypsin digestion fragment of RAD16-I]”, the “Peak Presence in MALDI Spectra” value in data set [1] (37 °C, MALDI-TOF) was “+”.
Still for that read-out and setting: the result for “ADARADA-NH2 [theoretical trypsin digestion fragment of RAD16-I]” reads “+”.
Still for that read-out and setting: the result for “ADARADAR [theoretical trypsin digestion fragment of RAD16-I]” reads “+”; that for “ADARADARADA-NH2 [theoretical trypsin digestion fragment of RAD16-I]”, “+”; that for “ADARADARADAR [theoretical trypsin digestion fragment of RAD16-I]”, “+”.
On the same count and under the same terms, next, “ADARADARADARADA-NH2 [theoretical trypsin digestion fragment of RAD16-I]”: “−”; “AcN-RADAR [theoretical trypsin digestion fragment of RAD16-I]”: “+”; “AcN-RADARADAR [theoretical trypsin digestion fragment of RAD16-I]”: “+”.
Regarding “AcN-RADARADARADAR [theoretical trypsin digestion fragment of RAD16-I]”, the “Peak Presence in MALDI Spectra” value in data set [1] (37 °C, MALDI-TOF) is given as “+”.
Regarding AcN-RADARADARADARADA-CONH2, the fragment found entry in data set [2] is reported as “AcN-RADAR, 1 min; also recorded: AcN-RADARADAR, 1 min; also recorded: AcN-RADARADARADAR, 1 min; also recorded: ADAR, 1 min; also recorded: ADARADARADA-CONH2, 1 min; also recorded: ADARADA-CONH2, 1 min; also recorded: ADARADARADAR, 1 min; also recorded: ADARADAR, 1 min”; in data set [3], “AcN-RADARADAR, 1 min; also recorded: AcN-RADARADARADAR, 1 min; also recorded: ADAR, 1 min; also recorded: ADARADARADA-CONH2, 1 min; also recorded: ADARADA-CONH2, 1 min; also recorded: ADARADARADAR, 1 min; also recorded: ADARADAR, 1 min; also recorded: AcN-RADAR, 1 min”.
As to “AcN-RADARADARADARADA-CONH2 [RAD16-I, self-assembling amphiphilic peptide scaffold, commercially available as PuraMatrix (1% in water)]”, the “Peak Presence in MALDI Spectra” value in data set [1] (37 °C, MALDI-TOF) is on record as “+”. In addition, the “peak belonging to RAD16-I (m/z 1712) after incubation with trypsin” value in data set [1] (peptide 50 µM, trypsin, 37 °C, 1 min or 30 min, reaction stopped by boiling, MALDI-TOF, regardless of incubation time, no difference between untreated and thermally treated) is “significantly reduced”. Also, in data set [1] (thermally denatured (90 °C, 10 min) samples compared with untreated, MALDI-TOF, Figure 4h), the “disappearance of RAD16-I peak (m/z 1713) upon trypsin treatment, denatured versus untreated samples” value is “much faster”. For the same substance, in data set [1] (untreated and thermally treated samples, taken and immediately mixed with MALDI-TOF matrix and evaporated (no boiling)), the “degradation of the peptide by trypsin (m/z 1713 peak)” value is recorded as “very fast”. Further, the “nanofibers after trypsin incubation, thermally treated samples, 10 min” value in data set [4] (90 °C 10 min then cooled, trypsin 1:1000 enzyme:peptide, 10 min) was “only the presence of short fibers was detected”. For the same substance, the “nanofibers after trypsin incubation, thermally treated samples, 60 min” value in data set [4] (90 °C 10 min then cooled, trypsin 1:1000 enzyme:peptide, 60 min) is recorded as “most of the fibers had disappeared”. For the same substance, in data set [4] (trypsin 1:1000 enzyme:peptide molar ratio), the “nanofibers after trypsin incubation, untreated (RT) samples, 10 min to 60 min” value is listed as “slight change in nanofiber density”. In data set [5] (5 mg/mL in water, 2.9 mM, incubated at 20 or 90 °C for 10 min, then diluted to 25 µM to record spectra), the “thermal denaturation of concentrated solutions by CD” value is “thermal denaturalization was not observed”. Besides, the “CD spectrum / secondary structure at 20 °C” value in data set [5] (25, 50 and 75 µM in deionized water, 20 °C, 10 min equilibration, CD 195-240 nm) is reported as “characteristic β-sheet spectrum”. Further, the “CD β-sheet spectrum at 40 °C” value in data set [5] (25, 50 and 75 µM in deionized water, 40 °C) is “maintained”. In data set [5] (25, 50 and 75 µM in deionized water, 90 °C, 10 min), the “CD secondary structure at 90 °C, diluted samples” value is reported as “structural transition from β-sheet to random coil”. In addition, in data set [5] (diluted samples after heating at 90 °C, kept at room temperature), the “reversibility of the β-sheet to random coil shift” value is reported as “irreversible at room temperature for at least a week”. Moreover, the “nanofiber network by AFM, thermally treated samples” value in data set [6] (90 °C for 10 min) was “significantly less dense”. Further, the “nanofiber structure by AFM, untreated samples” value in data set [6] (room temperature) was “dense network of long nanofibers”.

The record behind these values is paper PMC8945919 (Biomolecules, 2022).
